Assay results as given in US8822495B2, “Azacyclyl-substituted aryldihydroisoquinolinones, process for their preparation and their use as medicaments” (Sanofi, priority 2006, dated 2014).

Target: T1, human MCH receptor (Homo sapiens, UniProt Q99705)
T1 construct: expressed in transfected cells
Assay: functional IC50 of MCH1R antagonists: cellular calcium flux (FLIPR), called calcium immobilization assay
Format: cell-based
Conditions: calcium flux after addition of agonist (MCH), recombinant HEK293 cell line expressing the human MCH receptor
Description: Influence on the MCH receptor in vitro; determination of functional IC50 values of MCH1R antagonists
Cloning of the cDNA for the human MCH receptor, preparation of a recombinant HEK293 cell line which expresses the human MCH receptor, and functional measurements with the recombinant cell line took place in analogy to the description by Audinot et al. (J. Biol. Chem. 276, 13554-13562, 2001). A difference from the reference was, however, the use of the plasmid pEAK8 from EDGE Biosystems (USA) for the construction of the expression vector. The host used for the transfection was a transformed HEK cell line named “PEAK Stable Cells” (likewise from EDGE Biosystems). Functional measurements of the cellular calcium flux after addition of agonist (MCH) in the presence of ligand of the invention took place with the aid of the FLIPR apparatus from Molecular Devices (USA), using protocols of the apparatus manufacturer. The compounds of the invention show a significant inhibition (>30%) of the signal induced by the agonist at a concentration of 100 μM, preferably at 10 μM, particularly preferably at 1 μM, very particularly preferably at 100 nM and even more particularly preferably at 10 nM.

T1 sequence (Q99705 whole entry): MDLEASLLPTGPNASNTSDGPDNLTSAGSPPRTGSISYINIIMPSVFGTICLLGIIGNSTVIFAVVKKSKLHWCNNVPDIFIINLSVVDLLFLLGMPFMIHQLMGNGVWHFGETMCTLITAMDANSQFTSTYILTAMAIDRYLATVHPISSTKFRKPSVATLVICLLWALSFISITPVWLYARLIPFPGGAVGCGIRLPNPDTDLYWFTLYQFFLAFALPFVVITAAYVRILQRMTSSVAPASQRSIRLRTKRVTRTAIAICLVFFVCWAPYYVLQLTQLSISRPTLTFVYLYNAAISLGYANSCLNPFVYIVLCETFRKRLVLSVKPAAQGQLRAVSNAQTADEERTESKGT

| Structure (SMILES) | IC50 [µM] |
| --- | --- |
| CC(O)CCNc1ccc2c(c1)CCN(c1ccc(N3CC[C@@H](N(C)C)C3)c(F)c1)C2=O (stereo partly drawn) [Example 106] | 4.21 |
| CN[C@@H]1CCN(c2ccc(N3CCc4cc(OC5CC(C)OC5=O)ccc4C3=O)cc2F)C1 (stereo partly drawn) [Example 84] | 6.24 |
| CC(O)CCOc1ccc2c(=O)n(-c3ccc(N4CC[C@@H](N5CCCC5)C4)c(F)c3)ccc2c1 (stereo partly drawn) [Example 251] | 0.41 |
| CN1CC2(CCN(c3ccc(-n4ccc5cc(OC[C@H]6CCCO6)ccc5c4=O)cc3F)C2)C1 [Example 354] | 0.22 |
| O=C1c2ccc(OC[C@@H]3CCCO3)cc2CCN1c1ccc(N2CCC(N3CC4CCC4C3)C2)c(F)c1 (stereo partly drawn) [Example 264] | 0.59 |
| CN(C)C1(C)CCN(c2ccc(-n3ccc4cc(OC[C@H]5CCCO5)ccc4c3=O)cc2F)C1 (stereo partly drawn) [Example 356, 2-[4-(3-Dimethylamino-3-methyl-pyrrolidin-1-yl)-3-fluorophenyl]-6-[(R)-1-(tetrahydrofuran-2-yl)methoxy]-2H-isoquinolin-1-one] | 1.14 |
| CC1CCN(c2ccc3c(c2)CCN(c2ccc(N4CC[C@@H](N(C)C)C4)c(F)c2)C3=O)CC1 [Example 24, 2-[4-((R)-3-Dimethylaminopyrrolidin-1-yl)-3-fluorophenyl]-6-(4-methylpiperidin-1-yl)-3,4-dihydro-2H-isoquinolin-1-one] | 1.19 |
| CCCCOc1ccc2c(c1)CCN(c1ccc(N3CCC(N(C)C)C3)c(Cl)c1)C2=O (stereo not drawn) [Example 1, 6-Butoxy-2-[3-chloro-4-(3-dimethylaminopyrrolidin-1-yl)phenyl]-3,4-dihydro-2H-isoquinolin-1-one] | 0.99 |
| CC(C)(O)CN1CC[C@]2(CCN(c3ccc(N4CCc5cc(OC[C@@H]6CCCO6)ccc5C4=O)cc3)C2)C1 [Example 206] | 0.2 |
| CN1C[C@H]2CCN(c3ccc(-n4ccc5cc(OC[C@@H]6CCCO6)ccc5c4=O)cc3)[C@H]2C1 [Example 324] | 0.2 |
| CCCCOc1ccc2c(c1)CCN(c1ccc(N3CCC(N4CCN(C(C)=O)CC4)C3)cc1)C2=O (stereo not drawn) [Example 39, 2-{4-[3-(4-Acetylpiperazin-1-yl)pyrrolidin-1-yl]phenyl}-6-butoxy-3,4-dihydro-2H-isoquinolin-1-one] | 0.23 |
| CCCCOc1ccc2c(c1)CCN(c1ccc(N3CC[C@@H](N(C)CCS(C)(=O)=O)C3)c(F)c1)C2=O [Example 14, 6-Butoxy-2-(3-fluoro-4-{(R)-3-[(2-methanesulfonylethyl)methylamino]pyrrolidin-1-yl}phenyl)-3,4-dihydro-2H-isoquinolin-1-one] | 1.07 |
| CC(C)C(=O)Nc1ccc2c(c1)CCN(c1ccc(N3CC[C@@H](N(C)C)C3)c(F)c1)C2=O [Example 95] | 3.41 |

Second part, the compound after the results:

| IC50 [µM] | Structure (SMILES) |
| --- | --- |
| 0.38 | COCCCNC1CCN(c2ccc(-n3ccc4cc(OC[C@H]5CCCO5)ccc4c3=O)cc2F)C1 (stereo partly drawn) [Example 303] |
| 0.22 | COc1cc(-n2ccc3cc(OC[C@@H]4CCCO4)ccc3c2=O)ccc1N1CCCN(C)CC1 [Example 326] |
| 2.56 | CN(C)[C@@H]1CCN(c2ccc(N3CCc4cc(C#CC(C)(C)O)sc4C3=O)cc2)C1 [Example 361] |
| 0.22 | CCCCOc1ccc2c(c1)CCN(c1ccc(N3CCC(NCCCN4CCCC4=O)C3)cc1)C2=O (stereo not drawn) [Example 45] |
| 0.18 | O=c1c2ccc(OCC(O)C(F)(F)F)cc2ccn1-c1ccc(N2CC[C@@H](N3CCCC3)C2)c(F)c1 (stereo partly drawn) [Example 154] |
| 13 | O=C1CCCN1CCOc1ccc2c(=O)n(-c3ccc(N4CC[C@@H](N5CCCC5)C4)c(F)c3)ccc2c1 [Example 246] |
| 0.5 | CC1CCOC1COc1ccc2c(=O)n(-c3ccc(N4CC[C@@H](N5CCCC5)C4)c(F)c3)ccc2c1 (stereo partly drawn) [Example 202] |
| 1.39 | CC1(O)CCCC1Oc1ccc2c(=O)n(-c3ccc(N4CC[C@@H](N5CCCC5)C4)c(F)c3)ccc2c1 (stereo partly drawn) [Example 168] |
| 1.42 | CN(C)[C@@H]1CCN(c2ccc(N3CCc4cc(OCC5(C)COC5)ccc4C3=O)cc2F)C1 [Example 224] |
| 7.54 | CC1=C(C)C(=O)N(c2ccc3c(c2)CCN(c2ccc(N4CC[C@@H](N(C)C)C4)c(F)c2)C3=O)C1 [Example 112] |
| 1.46 | CN(C)[C@@H]1CCN(c2ccc(N3CCc4cc(OC5CCC(O)C5)ccc4C3=O)cc2F)C1 (stereo partly drawn) [Example 219] |
| 0.15 | CC1(O)CCN(C2CCN(c3ccc(-n4ccc5cc(OC[C@H]6CCCO6)ccc5c4=O)cc3F)C2)CC1 (stereo partly drawn) [Example 321] |
| 0.31 | CC[C@H](O)COc1ccc2c(c1)CCN(c1ccc(N3CC[C@]4(CCN(CCCF)C4)C3)cc1)C2=O [Example 176] |
| 1.96 | CC[C@H](O)COc1ccc2c(c1)CCN(c1ccc(N3CCC4CN(C)CC43)cc1)C2=O (stereo partly drawn) [Example 287] |
| 0.1 | C[C@@H](O)C#Cc1ccc2c(=O)n(-c3ccc(N4CC[C@@H](N5CCCC5)C4)c(F)c3)ccc2c1 [Example 136] |
| 23.8 | CO[C@@H]1CN(c2ccc(-n3ccc4cc(OC[C@H]5CCCO5)ccc4c3=O)cc2F)C[C@H]1N(C)C (relative stereo) [Example 353, 2-[4-((3R*,4R*)-3-Dimethylamino-4-methoxy-pyrrolidin-1-yl)-3-fluorophenyl]-6-[(R)-1-(tetrahydrofuran-2-yl)methoxy]-2H-isoquinolin-1-one] |
| 0.36 | O=c1c2ccc(OCCCF)cc2ccn1-c1ccc(N2CC[C@]3(CCN(CCCF)C3)C2)cc1 [Example 210] |
| 3.69 | CC(=O)N(C)C1CCCN(c2ccc(-n3ccc4cc(OC[C@@H]5CCCO5)ccc4c3=O)cc2)C1 (stereo partly drawn) [Example 327] |
| 1.68 | CN(C)[C@@H]1CCN(c2ccc(N3CCc4cc(N5C[C@H]6CCCN6C5=O)ccc4C3=O)cc2F)C1 [Example 99] |
| 1.6 | O=c1c2ccc(OC[C@H]3CCCO3)cc2ccn1-c1ccc(N2CCC3(CNCCO3)C2)c(F)c1 (stereo partly drawn) [Example 341] |
